From patent US9914730B2, “Azaquinazoline inhibitors of Atypical protein Kinase C” (Ignyta, Inc., priority 2012, dated 2018) come the findings set out here.

As usually defined, the IC50 is the midpoint of a concentration-inhibition curve.

The test has as its target T1, full-length human PKCι (Homo sapiens, UniProt P41743).
T1 construct: Recombinant, full-length human PKCι expressed in Sf21 insect cells is also commercially available; purchased; host or cells: Sf21 insect cells
T1 sequence (P41743 1-596): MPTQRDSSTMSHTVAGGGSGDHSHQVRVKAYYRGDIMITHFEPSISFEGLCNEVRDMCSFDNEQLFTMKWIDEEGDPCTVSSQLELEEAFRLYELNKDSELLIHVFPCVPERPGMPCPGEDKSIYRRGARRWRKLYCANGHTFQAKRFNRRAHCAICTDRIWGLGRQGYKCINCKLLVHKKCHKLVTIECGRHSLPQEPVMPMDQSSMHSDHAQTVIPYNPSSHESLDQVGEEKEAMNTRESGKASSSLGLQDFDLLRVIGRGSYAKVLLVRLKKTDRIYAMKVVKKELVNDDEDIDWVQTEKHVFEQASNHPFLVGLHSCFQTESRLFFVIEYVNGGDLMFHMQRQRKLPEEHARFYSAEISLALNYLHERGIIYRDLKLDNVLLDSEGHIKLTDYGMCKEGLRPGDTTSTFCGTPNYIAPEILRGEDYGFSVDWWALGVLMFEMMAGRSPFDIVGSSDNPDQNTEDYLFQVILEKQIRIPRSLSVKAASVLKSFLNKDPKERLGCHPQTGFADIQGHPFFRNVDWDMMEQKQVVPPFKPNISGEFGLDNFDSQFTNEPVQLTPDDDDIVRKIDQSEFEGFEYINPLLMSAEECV
As to the kind of experiment: PKCι IC50 IMAP assay, full-length PKCι at 150 μM ATP. The class given is biochemical. Conditions: read-out: IC50 in IMAP assay against full length PKCi at 150 μM ATP. The method in brief: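 IMAP fluorescence polarisation (ex 485/em 530 nm) read-out; % inhibition set from no-compound (0%) and no-enzyme (100%) controls, IC50 from dose-response curve fit. Sf21-expressed full-length enzyme ~15 pM, 100 nM FAM peptide, ATP 150 μM (5× KM^APP), 60 min at RT.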
For `CN(c1nc(-c2ccnc(Nc3ncc(F)cc3F)c2)nc2cncc(C3CC3)c12)C1CCNCC1` [Example 2095, {5-Cyclopropyl-2-[2-(3,5-difluoro-pyridin-2-ylamino)-pyridin-4-yl]-pyrido[3,4-d]pyrimidin-4-yl}-methyl-piperidin-4-yl-amine], the IC50 was < 100 nM.
In the case of `CC(=O)N1CCC(N(C)c2nc(-c3ccnc(Nc4c(F)cccc4F)c3)nc3cncc(C4CC4)c23)CC1` [Example 2096, 1-[4-({5-Cyclopropyl-2-[2-(2,6-difluoro-phenylamino)-pyridin-4-yl]-pyrido[3,4-d]pyrimidin-4-yl}-methyl-amino)-piperidin-1-yl]-ethanone] it was 100 to 1000 nM.
`c1ccc2c(c1)CC(Nc1cc(-c3nc(N4CCNCC4)c4c(C5CC5)cncc4n3)ccn1)C2` [Example 2097]: the IC50 was < 100 nM.
The result for `c1ccc2c(c1)CC[C@H]2Nc1cc(-c2nc(N3CCNCC3)c3c(C4CC4)cncc3n2)ccn1` [Example 2098, [4-(5-Cyclopropyl-4-piperazin-1-yl-pyrido[3,4-d]pyrimidin-2-yl)-pyridin-2-yl]-(R)-indan-1-yl-amine] reads < 100 nM.
The result for `c1ccc2c(c1)CC[C@@H]2Nc1cc(-c2nc(N3CCNCC3)c3c(C4CC4)cncc3n2)ccn1` [Example 2099, [4-(5-Cyclopropyl-4-piperazin-1-yl-pyrido[3,4-d]pyrimidin-2-yl)-pyridin-2-yl]-(S)-indan-1-yl-amine] reads < 100 nM.
The result for `Fc1cccc(F)c1Nc1cc(-c2nc(N3CCNCC3)c3c(C4CC4)cnc(Cl)c3n2)ccn1` [Example 2100, [4-(8-Chloro-5-cyclopropyl-4-piperazin-1-yl-pyrido[3,4-d]pyrimidin-2-yl)-pyridin-2-yl]-(2,6-difluoro-phenyl)-amine] reads < 100 nM; that for `Fc1cccc(F)c1Nc1cc(-c2nc(N3CCNCC3)c3c(C4CC4)cnc(F)c3n2)ccn1` [Example 2101, [4-(5-Cyclopropyl-8-fluoro-4-piperazin-1-yl-pyrido[3,4-d]pyrimidin-2-yl)-pyridin-2-yl]-(2,6-difluoro-phenyl)-amine], < 100 nM; that for `Fc1ncc(C2CC2)c2c(N3CCNCC3)nc(-c3ccnc4[nH]c(C(F)(F)F)cc34)nc12` [Example 2102, 5-Cyclopropyl-8-fluoro-4-piperazin-1-yl-2-(2-trifluoromethyl-1H-pyrrolo[2,3-b]pyridin-4-yl)-pyrido[3,4-d]pyrimidine], < 100 nM.
`Fc1cccc(F)c1Nc1cc(-c2nc(NCC3CCN(C4CCC4)CC3)c3c(C4CC4)cncc3n2)ccn1` [Example 2103, (1-Cyclobutyl-piperidin-4-ylmethyl)-{5-cyclopropyl-2-[2-(2,6-difluoro-phenylamino)-pyridin-4-yl]-pyrido[3,4-d]pyrimidin-4-yl}-amine]: the IC50 is 100 to 1000 nM.
In the case of `c1cc(Nc2cc(-c3nc(N4CCNCC4)c4c(C5CC5)cncc4n3)ccn2)c2nonc2c1` [Example 2104, Benzo[1,2,5]oxadiazol-4-yl-[4-(5-cyclopropyl-4-piperazin-1-yl-pyrido[3,4-d]pyrimidin-2-yl)-pyridin-2-yl]-amine] it was < 100 nM.
Take `FC(F)(F)c1cc2c(-c3nc(N4CCNCC4)c4c(C5CCCC5)cncc4n3)ccnc2[nH]1` [Example 2105, 5-Cyclopentyl-4-piperazin-1-yl-2-(2-trifluoromethyl-1H-pyrrolo[2,3-b]pyridin-4-yl)-pyrido[3,4-d]pyrimidine]: the IC50 is < 100 nM.
The result for `FC(F)c1cc2c(-c3nc(N4CCNCC4)c4c(C5CC5)cncc4n3)ccnc2[nH]1` [Example 2106, 5-Cyclopropyl-2-(2-difluoromethyl-1H-pyrrolo[2,3-b]pyridin-4-yl)-4-piperazin-1-yl-pyrido[3,4-d]pyrimidine] reads < 100 nM; that for `Fc1cccc(F)c1Nc1cc(-c2nc(NCC3CCNCC3)c3c(C4CC4)cncc3n2)ccn1` [Example 2107, {5-Cyclopropyl-2-[2-(2,6-difluoro-phenylamino)-pyridin-4-yl]-pyrido[3,4-d]pyrimidin-4-yl}-piperidin-4-ylmethyl-amine], < 100 nM.
`COCC(C)(C)c1cc2c(-c3nc(N4CCNCC4)c4c(C5CC5)cncc4n3)ccnc2[nH]1` [Example 2108, 5-Cyclopropyl-2-[2-(2-methoxy-1,1-dimethyl-ethyl)-1H-pyrrolo[2,3-b]pyridin-4-yl]-4-piperazin-1-yl-pyrido[3,4-d]pyrimidine]: the IC50 was < 100 nM.
With `COCC(C)(C)c1cc2c(-c3nc(N4CCNCC4)c4c(C5CCC5)cncc4n3)ccnc2[nH]1` [Example 2109, 5-Cyclobutyl-2-[2-(2-methoxy-1,1-dimethyl-ethyl)-1H-pyrrolo[2,3-b]pyridin-4-yl]-4-piperazin-1-yl-pyrido[3,4-d]pyrimidine], the concentration for half-maximal inhibition (IC50) was < 100 nM.
The result for `CN(c1nc(-c2ccnc(Nc3c(F)cccc3F)c2)nc2cncc(C3CC3)c12)C1CCN(C2CCC2)CC1` [Example 2110, (1-Cyclobutyl-piperidin-4-yl)-{5-cyclopropyl-2-[2-(2,6-difluoro-phenylamino)-pyridin-4-yl]-pyrido[3,4-d]pyrimidin-4-yl}-methyl-amine] reads 100 to 1000 nM; that for `c1cc(-c2nc(N3CCNCC3)c3c(C4CC4)cncc3n2)c2cc(C3CCOCC3)[nH]c2n1` [Example 2111, 5-Cyclopropyl-4-piperazin-1-yl-2-[2-(tetrahydro-pyran-4-yl)-1H-pyrrolo[2,3-b]pyridin-4-yl]-pyrido[3,4-d]pyrimidine], < 100 nM; that for `Cc1cc2c(-c3nc(N4CCNCC4)c4c(C5CCC5)cncc4n3)ccnc2[nH]1` [Example 2112, 5-Cyclobutyl-2-(2-methyl-1H-pyrrolo[2,3-b]pyridin-4-yl)-4-piperazin-1-yl-pyrido[3,4-d]pyrimidine], < 100 nM.
Regarding `c1ccc(C2(c3cc4c(-c5nc(N6CCNCC6)c6c(C7CCC7)cncc6n5)ccnc4[nH]3)CC2)cc1` [Example 2113, 5-Cyclobutyl-2-[2-(1-phenyl-cyclopropyl)-1H-pyrrolo[2,3-b]pyridin-4-yl]-4-piperazin-1-yl-pyrido[3,4-d]pyrimidine], the IC50 is < 100 nM.
In the case of `FC(F)c1cc2c(-c3nc(N4CCNCC4)c4c(C5CCC5)cncc4n3)ccnc2[nH]1` [Example 2114, 5-Cyclobutyl-2-(2-difluoromethyl-1H-pyrrolo[2,3-b]pyridin-4-yl)-4-piperazin-1-yl-pyrido[3,4-d]pyrimidine] it was < 100 nM; in that of `CC(C)N1CCC(N(C)c2nc(-c3ccnc(Nc4c(F)cccc4F)c3)nc3cncc(C4CC4)c23)CC1` [Example 2115, {5-Cyclopropyl-2-[2-(2,6-difluoro-phenylamino)-pyridin-4-yl]-pyrido[3,4-d]pyrimidin-4-yl}-(1-isopropyl-piperidin-4-yl)-methyl-amine], < 100 nM; in that of `c1cc(-c2nc(N3CCNCC3)c3c(C4CC4)cncc3n2)cc(Nc2ccc3nonc3c2)n1` [Example 2116, Benzo[1,2,5]oxadiazol-5-yl-[4-(5-cyclopropyl-4-piperazin-1-yl-pyrido[3,4-d]pyrimidin-2-yl)-pyridin-2-yl]-amine], < 100 nM.
The result for `FC(F)(F)c1cc2c(-c3nc(N4CCNCC4)c4c(Br)cncc4n3)ccnc2[nH]1` [Example 2117, 5-Bromo-4-piperazin-1-yl-2-(2-trifluoromethyl-1H-pyrrolo[2,3-b]pyridin-4-yl)-pyrido[3,4-d]pyrimidine] reads < 100 nM.
In the case of `CC(C)(C)c1cc2c(-c3nc(N4CCNCC4)c4c(C5CC5)cnc(Cl)c4n3)ccnc2[nH]1` [Example 2118, 2-(2-tert-Butyl-1H-pyrrolo[2,3-b]pyridin-4-yl)-8-chloro-5-cyclopropyl-4-piperazin-1-yl-pyrido[3,4-d]pyrimidine] it was < 100 nM; in that of `CC(C)(C)c1cc2c(-c3nc(N4CCNCC4)c4c(C5CC5)cnc(F)c4n3)ccnc2[nH]1` [Example 2119, 2-(2-tert-Butyl-1H-pyrrolo[2,3-b]pyridin-4-yl)-5-cyclopropyl-8-fluoro-4-piperazin-1-yl-pyrido[3,4-d]pyrimidine], < 100 nM; in that of `CC(C)(C)c1cc2c(-c3nc(N4CCNCC4)c4c(Br)cncc4n3)ccnc2[nH]1` [Example 2120, 5-Bromo-2-(2-tert-butyl-1H-pyrrolo[2,3-b]pyridin-4-yl)-4-piperazin-1-yl-pyrido[3,4-d]pyrimidine], < 100 nM.
Turning to `CN(c1nc(-c2ccnc(Nc3c(F)cccc3F)c2)nc2cncc(C3CC3)c12)C1CCN(CC(F)F)CC1` [Example 2123, {5-Cyclopropyl-2-[2-(2,6-difluoro-phenylamino)-pyridin-4-yl]-pyrido[3,4-d]pyrimidin-4-yl}-[1-(2,2-difluoro-ethyl)-piperidin-4-yl]-methyl-amine], the IC50 was in the range of 100 to 1000 nM.
As to `c1cc(-c2nc(N3CCNCC3)c3c(C4CC4)cncc3n2)cc(Nc2ccc3c(c2)CCC3)n1` [Example 2124, [4-(5-Cyclopropyl-4-piperazin-1-yl-pyrido[3,4-d]pyrimidin-2-yl)-pyridin-2-yl]-indan-5-yl-amine], the IC50 was < 100 nM.
